US8394848B2, “Compounds that modulate intracellular calcium” (Calcimedica, Inc., priority 2008, dated 2013)

The molecules below were run on JR251 or RBL cells (assay: Store-operated calcium entry, either JR251 or RBL cells, or both).
Format: cell-based
Protocol: The day prior to performing the assay, RBL-2H3 cells are plated in 50 μL of complete medium in a 384 well plate. Cells are grown at 37° C./6% CO2 overnight and grow to 50-60% confluence by the next day. On the assay day, 1.5 μM Fluo-4-AM dye (Invitrogen) in complete medium is added and incubated for 1 hour at RT. Cells are washed twice in Ca^2+-free HBSS buffer and 35 μL Ca^2+-free HBSS buffer is added to each well. 10 μL of a test compound prepared in a Ca^2+-free HBSS solution at 4.5× of the desired concentration is added to a well and incubated for 5 minutes at RT. 10 μL of thapsigargin prepared in a Ca^2+-free HBSS solution at 5.5× of the desired concentration (5.5 uM) is added to each well and incubated for an additional 25 minutes. The initial baseline fluorescence signal is measured with a FLIPR^384 (Molecular Devices) plate reader. 5 μL of 12× calcium in HBSS (12 mM) is added and changes in cellular fluorescence are measured with the FLIPR^384 plate reader. In each well, the change in the fluorescent signal as a function of time due to calcium entry into the cell is determined by calculating the difference between the fluorescent signal measured 7 seconds after calcium addition and the initial baseline fluorescence signal at time zero (t=0). This parameter is designated Upslope. The IC50 value is calculated as the concentration at which 50% of the Upslope is inhibited.

| IC50 [µM] | SMILES |
| --- | --- |
| < 10 | O=C(Nc1scc(-c2ccc(Cl)cc2)c1C(=O)O)c1nc2cc(Br)ccc2o1 [2-(5-bromobenzo[d]oxazole-2-carboxamido)-4-(4-chlorophenyl)thiophene-3-carboxylic acid] |
| < 10 | O=C(O)c1c(-c2ccc(Cl)cc2)csc1NC(=O)C1Cc2cc(Cl)ccc2O1 (centres unmarked) [2-(5-chloro-2,3-dihydrobenzofuran-2-carboxamido)-4-(4-chlorophenyl)thiophene-3-carboxylic acid] |
| < 10 | COc1c(C(=O)Nc2scc(-c3ccc(Cl)cc3)c2C(=O)O)csc1Cl [2-(5-chloro-4-methoxythiophene-3-carboxamido)-4-(4-chlorophenyl)thiophene-3-carboxylic acid] |
| < 10 | Cc1ccc(-c2csc(NC(=O)c3nc4cc(Cl)ccc4o3)c2C(=O)O)c(F)c1F [2-(5-chlorobenzo[d]oxazole-2-carboxamido)-4-(2,3-difluoro-4-methylphenyl)thiophene-3-carboxylic acid] |
| < 10 | O=C(Nc1scc(-c2ccc(Cl)cc2)c1C(=O)O)c1nc2cc(Cl)ccc2o1 [2-(5-chlorobenzo[d]oxazole-2-carboxamido)-4-(4-chlorophenyl)thiophene-3-carboxylic acid] |
| < 10 | Cc1ccc(-c2csc(NC(=O)c3ccc(-c4ccccc4)s3)c2C(=O)O)cc1 [2-(5-phenylthiophene-2-carboxamido)-4-p-tolylthiophene-3-carboxylic acid] |
| < 10 | Cc1ccc(-c2csc(NC(=O)c3nc4ccc(Br)cc4o3)c2C(=O)O)c(F)c1F [2-(6-bromobenzo[d]oxazole-2-carboxamido)-4-(2,3-difluoro-4-methylphenyl)thiophene-3-carboxylic acid] |
| < 10 | Cc1ccc(-c2csc(NC(=O)c3nc4cccc(Br)c4o3)c2C(=O)O)c(F)c1F [2-(7-bromobenzo[d]oxazole-2-carboxamido)-4-(2,3-difluoro-4-methylphenyl)thiophene-3-carboxylic acid] |
| < 10 | O=C(Nc1scc(-c2ccc(Cl)cc2)c1C(=O)O)c1nc2cccc(Br)c2o1 [2-(7-bromobenzo[d]oxazole-2-carboxamido)-4-(4-chlorophenyl) thiophene-3-carboxylic acid] |
| < 10 | Cc1ccc(-c2csc(NC(=O)c3nc4cccc(C#N)c4o3)c2C(=O)O)c(F)c1F [2-(7-cyanobenzo[d]oxazole-2-carboxamido)-4-(2,3-difluoro-4-methylphenyl)thiophene-3-carboxylic acid] |
| < 10 | O=C(Nc1scc(-c2cc3cccc(O)c3o2)c1C(=O)O)c1nc2cccc(F)c2o1 [2-(7-fluorobenzo[d]oxazole-2-carboxamido)-4-(7-hydroxybenzofuran-2-yl)thiophene-3-carboxylic acid] |
| < 10 | O=C(Nc1scc(-c2cc3cccc(O)c3o2)c1C(=O)O)c1cc2cccc(O)c2o1 [2-(7-hydroxybenzofuran-2-carboxamido)-4-(7-hydroxybenzofuran-2-yl)thiophene-3-carboxylic acid] |
| < 10 | O=C(Nc1scc(-c2ccc(Cl)cc2)c1C(=O)O)OCc1ccccc1Cl [2-((2-chlorobenzyloxy)carbonylamino)-4-(4-chlorophenyl)thiophene-3-carboxylic acid] |
| < 10 | Cc1ccc(-c2csc(NC(=O)c3ccc4snnc4c3)c2C(=O)O)c(F)c1F [2-(benzo[d][1,2,3]thiadiazole-5-carboxamido)-4-(2,3-difluoro-4-methylphenyl)thiophene-3-carboxylic acid] |
| < 10 | O=C(Nc1scc(-c2ccc(Cl)c(Cl)c2)c1C(=O)O)c1ccc2snnc2c1 [2-(benzo[d][1,2,3]thiadiazole-5-carboxamido)-4-(3,4-dichlorophenyl)thiophene-3-carboxylic acid] |
| < 10 | O=C(Nc1scc(-c2ccc(Br)cc2)c1C(=O)O)c1ccc2snnc2c1 [2-(benzo[d][1,2,3]thiadiazole-5-carboxamido)-4-(4-bromophenyl)thiophene-3-carboxylic acid] |
| < 10 | O=C(Nc1scc(-c2ccc(Cl)c(F)c2)c1C(=O)O)c1ccc2snnc2c1 [2-(benzo[d][1,2,3]thiadiazole-5-carboxamido)-4-(4-chloro-3-fluorophenyl)thiophene-3-carboxylic acid] |
| < 10 | COc1cc(-c2csc(NC(=O)c3ccc4snnc4c3)c2C(=O)O)ccc1Cl [2-(benzo[d][1,2,3]thiadiazole-5-carboxamido)-4-(4-chloro-3-methoxyphenyl)thiophene-3-carboxylic acid] |
| < 10 | O=C(Nc1scc(-c2ccc(Cl)cc2)c1C(=O)O)c1ccc2snnc2c1 [2-(benzo[d][1,2,3]thiadiazole-5-carboxamido)-4-(4-chlorophenyl)thiophene-3-carboxylic acid] |

| IC50 [µM] | SMILES |
| --- | --- |
| < 10 | N#Cc1ccc(-c2csc(NC(=O)c3ccc4snnc4c3)c2C(=O)O)cc1 [2-(benzo[d][1,2,3]thiadiazole-5-carboxamido)-4-(4-cyanophenyl)thiophene-3-carboxylic acid] |
| < 10 | O=C(Nc1scc(-c2cc3cccc(O)c3o2)c1C(=O)O)c1ccc2snnc2c1 [2-(benzo[d][1,2,3]thiadiazole-5-carboxamido)-4-(7-hydroxybenzofuran-2-yl)thiophene-3-carboxylic acid] |
| < 10 | COc1cccc2cc(-c3csc(NC(=O)c4ccc5snnc5c4)c3C(=O)O)oc12 [2-(benzo[d][1,2,3]thiadiazole-5-carboxamido)-4-(7-methoxybenzofuran-2-yl)thiophene-3-carboxylic acid] |
| < 10 | O=C(Nc1scc(-c2ccc(Br)cc2)c1C(=O)O)c1ccc2nnsc2c1 [2-(benzo[d][1,2,3]thiadiazole-6-carboxamido)-4-(4-bromophenyl)thiophene-3-carboxylic acid] |
| < 10 | O=C(Nc1scc(-c2ccc(Cl)cc2)c1C(=O)O)c1ccc2nnsc2c1 [2-(benzo[d][1,2,3]thiadiazole-6-carboxamido)-4-(4-chlorophenyl)thiophene-3-carboxylic acid] |
| < 10 | O=C(Nc1scc(-c2cc3cccc(O)c3o2)c1C(=O)O)c1ccc2nnsc2c1 [2-(benzo[d][1,2,3]thiadiazole-6-carboxamido)-4-(7-hydroxybenzofuran-2-yl)thiophene-3-carboxylic acid] |
| < 10 | O=C(Nc1scc(-c2ccc(F)c(F)c2F)c1C(=O)O)c1nc2ccccc2o1 [2-(benzo[d]oxazole-2-carboxamido)-4-(2,3,4-trifluorophenyl)thiophene-3-carboxylic acid] |
| < 10 | Cc1ccc(-c2csc(NC(=O)c3nc4ccccc4o3)c2C(=O)O)c(F)c1F [2-(benzo[d]oxazole-2-carboxamido)-4-(2,3-difluoro-4-methylphenyl)thiophene-3-carboxylic acid] |
| < 10 | O=C(Nc1scc(-c2ccc3c(c2)CCC3)c1C(=O)O)c1nc2ccccc2o1 [2-(benzo[d]oxazole-2-carboxamido)-4-(2,3-dihydro-1H-inden-5-yl)thiophene-3-carboxylic acid] |
| < 10 | O=C(Nc1scc(-c2ccc3c(c2)CCO3)c1C(=O)O)c1nc2ccccc2o1 [2-(benzo[d]oxazole-2-carboxamido)-4-(2,3-dihydrobenzofuran-5-yl)thiophene-3-carboxylic acid] |
| < 10 | O=C(Nc1scc(-c2ccc(F)c(O)c2F)c1C(=O)O)c1nc2ccccc2o1 [2-(benzo[d]oxazole-2-carboxamido)-4-(2,4-difluoro-3-hydroxyphenyl)thiophene-3-carboxylic acid] |
| < 10 | COc1c(F)ccc(-c2csc(NC(=O)c3nc4ccccc4o3)c2C(=O)O)c1F [2-(benzo[d]oxazole-2-carboxamido)-4-(2,4-difluoro-3-methoxyphenyl)thiophene-3-carboxylic acid] |
| < 10 | O=C(Nc1scc(-c2ccc(F)cc2F)c1C(=O)O)c1nc2ccccc2o1 [2-(benzo[d]oxazole-2-carboxamido)-4-(2,4-difluorophenyl)thiophene-3-carboxylic acid] |
| < 10 | O=C(Nc1scc(-c2ccc(C(F)(F)F)cc2Cl)c1C(=O)O)c1nc2ccccc2o1 [2-(benzo[d]oxazole-2-carboxamido)-4-(2-chloro-4-(trifluoromethyl)phenyl)thiophene-3-carboxylic acid] |
| < 10 | COc1ccc(-c2csc(NC(=O)c3nc4ccccc4o3)c2C(=O)O)c(Cl)c1 [2-(benzo[d]oxazole-2-carboxamido)-4-(2-chloro-4-methoxyphenyl)thiophene-3-carboxylic acid] |
| < 10 | Cc1ccc(-c2csc(NC(=O)c3nc4ccccc4o3)c2C(=O)O)c(Cl)c1 [2-(benzo[d]oxazole-2-carboxamido)-4-(2-chloro-4-methylphenyl)thiophene-3-carboxylic acid] |
| < 10 | O=C(Nc1scc(-c2ccc(C(F)(F)F)cc2F)c1C(=O)O)c1nc2ccccc2o1 [2-(benzo[d]oxazole-2-carboxamido)-4-(2-fluoro-4-(trifluoromethyl)phenyl)thiophene-3-carboxylic acid] |
| < 10 | Cc1ccc(-c2csc(NC(=O)c3nc4ccccc4o3)c2C(=O)O)c(F)c1 [2-(benzo[d]oxazole-2-carboxamido)-4-(2-fluoro-4-methylphenyl)thiophene-3-carboxylic acid] |
| < 10 | COc1cc(C(F)(F)F)ccc1-c1csc(NC(=O)c2nc3ccccc3o2)c1C(=O)O [2-(benzo[d]oxazole-2-carboxamido)-4-(2-methoxy-4-(trifluoromethyl)phenyl)thiophene-3-carboxylic acid] |
